Measured values reported in ChEMBL document CHEMBL1143275, “Positive allosteric modulators of the metabotropic glutamate receptor subtype 4 (mGluR4). Part II: Challenges in hit-to-lead” (Bioorg Med Chem Lett, 2009).
Activity calls are given as the source filed them. The rule behind the calls is not given here.

Legend:
[1] = target: T1, Metabotropic glutamate receptor 4 (Homo sapiens, UniProt Q14833); assay: Activation of human mGluR4 expressed in CHO cells coexpressing Gqi5 protein assessed as potentiation of glutamate-induced response relative to glutamate alone; type: cell-based; design: concentration or dose not given beside the values
T1 sequence (Q14833 whole entry): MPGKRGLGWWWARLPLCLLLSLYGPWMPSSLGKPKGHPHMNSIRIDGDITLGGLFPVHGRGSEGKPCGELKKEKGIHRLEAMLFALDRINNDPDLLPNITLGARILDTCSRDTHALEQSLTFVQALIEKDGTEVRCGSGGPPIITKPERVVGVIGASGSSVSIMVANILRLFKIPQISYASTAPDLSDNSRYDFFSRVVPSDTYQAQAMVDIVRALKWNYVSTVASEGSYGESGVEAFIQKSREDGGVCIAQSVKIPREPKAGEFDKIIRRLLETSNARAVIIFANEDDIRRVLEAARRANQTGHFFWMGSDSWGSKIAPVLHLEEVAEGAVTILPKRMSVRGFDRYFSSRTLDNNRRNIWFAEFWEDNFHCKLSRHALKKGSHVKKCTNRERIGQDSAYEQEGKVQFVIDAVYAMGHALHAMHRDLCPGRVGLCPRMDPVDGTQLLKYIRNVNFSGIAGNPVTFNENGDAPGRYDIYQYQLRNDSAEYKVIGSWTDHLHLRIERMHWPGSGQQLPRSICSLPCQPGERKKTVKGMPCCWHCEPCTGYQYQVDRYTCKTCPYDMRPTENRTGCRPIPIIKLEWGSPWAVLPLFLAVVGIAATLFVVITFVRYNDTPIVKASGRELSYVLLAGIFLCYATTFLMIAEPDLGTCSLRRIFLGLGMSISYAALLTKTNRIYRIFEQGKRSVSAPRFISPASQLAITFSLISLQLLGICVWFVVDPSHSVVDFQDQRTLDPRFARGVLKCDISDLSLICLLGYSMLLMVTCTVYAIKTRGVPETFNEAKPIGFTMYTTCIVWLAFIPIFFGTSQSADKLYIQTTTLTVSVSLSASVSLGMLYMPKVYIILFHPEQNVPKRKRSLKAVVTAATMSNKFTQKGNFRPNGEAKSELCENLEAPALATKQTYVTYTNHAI

[2] = target: T1, Metabotropic glutamate receptor 4; assay: Activation of human mGluR4 expressed in CHO cells coexpressing Gqi5 protein assessed as potentiation of glutamate-induced response; type: cell-based
[3] = target: T1, Metabotropic glutamate receptor 4; assay: Activation of human mGluR4 expressed in CHO cells coexpressing Gqi5 protein assessed as fold shifting of glutamate-induced response at 30 uM; type: cell-based
[4] = target: Metabotropic glutamate receptor 2 (Homo sapiens) (UniProt Q14416); assay: Antagonist activity at mGluR2 assessed as effect on glutamate-induced response; type: functional
Sequence of Metabotropic glutamate receptor 2 (Homo sapiens) (Q14416 19-872 limits assumed): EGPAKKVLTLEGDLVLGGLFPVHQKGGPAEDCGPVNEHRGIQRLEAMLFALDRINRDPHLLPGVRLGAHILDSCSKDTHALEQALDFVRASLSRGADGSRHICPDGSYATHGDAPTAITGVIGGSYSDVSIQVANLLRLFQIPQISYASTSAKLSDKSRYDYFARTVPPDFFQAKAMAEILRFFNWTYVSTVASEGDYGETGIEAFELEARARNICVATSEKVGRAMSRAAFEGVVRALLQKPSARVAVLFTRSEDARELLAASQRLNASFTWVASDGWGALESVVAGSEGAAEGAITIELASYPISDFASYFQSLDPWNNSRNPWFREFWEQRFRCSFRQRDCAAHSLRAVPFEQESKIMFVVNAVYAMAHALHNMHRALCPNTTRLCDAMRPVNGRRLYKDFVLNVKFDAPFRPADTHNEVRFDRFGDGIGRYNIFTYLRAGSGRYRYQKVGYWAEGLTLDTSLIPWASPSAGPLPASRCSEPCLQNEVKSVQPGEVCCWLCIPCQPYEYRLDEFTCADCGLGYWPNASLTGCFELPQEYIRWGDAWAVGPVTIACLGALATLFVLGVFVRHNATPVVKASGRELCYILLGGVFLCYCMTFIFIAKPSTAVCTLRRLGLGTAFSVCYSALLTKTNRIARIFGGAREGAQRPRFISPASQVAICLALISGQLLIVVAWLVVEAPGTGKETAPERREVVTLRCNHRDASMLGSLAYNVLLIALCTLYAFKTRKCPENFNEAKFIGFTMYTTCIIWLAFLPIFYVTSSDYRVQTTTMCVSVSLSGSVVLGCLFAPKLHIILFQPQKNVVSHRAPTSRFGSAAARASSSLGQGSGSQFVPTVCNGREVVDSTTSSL

[5] = target: T1, Metabotropic glutamate receptor 4; assay: Activation of human mGluR4 expressed in CHO cells coexpressing Gqi5 protein in absence of glutamate; type: cell-based
[6] = target: Metabotropic glutamate receptor 7 (Homo sapiens) (UniProt Q14831); assay: Antagonist activity at mGluR7 assessed as effect on glutamate-induced response; type: functional
Sequence of Metabotropic glutamate receptor 7 (Homo sapiens) (Q14831 whole entry): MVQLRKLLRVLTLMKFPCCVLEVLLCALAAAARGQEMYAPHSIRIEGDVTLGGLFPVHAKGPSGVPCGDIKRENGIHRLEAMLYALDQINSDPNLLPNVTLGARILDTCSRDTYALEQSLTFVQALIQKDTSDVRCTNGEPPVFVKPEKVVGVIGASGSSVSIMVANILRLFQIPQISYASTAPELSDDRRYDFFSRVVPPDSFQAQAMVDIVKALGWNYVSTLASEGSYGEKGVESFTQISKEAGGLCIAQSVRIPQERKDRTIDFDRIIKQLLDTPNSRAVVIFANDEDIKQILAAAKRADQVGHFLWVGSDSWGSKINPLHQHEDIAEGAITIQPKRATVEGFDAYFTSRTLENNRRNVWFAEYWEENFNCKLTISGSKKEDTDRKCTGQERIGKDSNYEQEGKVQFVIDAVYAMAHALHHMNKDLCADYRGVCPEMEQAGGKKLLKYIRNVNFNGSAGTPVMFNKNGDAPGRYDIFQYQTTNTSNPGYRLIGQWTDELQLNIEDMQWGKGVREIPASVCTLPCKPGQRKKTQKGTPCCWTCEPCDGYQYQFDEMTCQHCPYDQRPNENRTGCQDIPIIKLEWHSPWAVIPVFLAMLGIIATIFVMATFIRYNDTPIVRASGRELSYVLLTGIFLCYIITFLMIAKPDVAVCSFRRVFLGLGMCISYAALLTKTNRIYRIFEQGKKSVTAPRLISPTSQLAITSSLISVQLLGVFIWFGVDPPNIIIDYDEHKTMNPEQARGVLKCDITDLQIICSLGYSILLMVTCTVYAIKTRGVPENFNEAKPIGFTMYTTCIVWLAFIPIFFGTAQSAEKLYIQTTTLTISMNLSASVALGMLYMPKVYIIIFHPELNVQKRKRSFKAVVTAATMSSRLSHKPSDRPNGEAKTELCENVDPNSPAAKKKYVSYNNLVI

[7] = target: Metabotropic glutamate receptor 8 (Homo sapiens) (UniProt O00222); assay: Antagonist activity at mGluR8 assessed as effect on glutamate-induced response; type: functional
[8] = target: Metabotropic glutamate receptor 5 (Homo sapiens) (UniProt P41594); assay: Antagonist activity at mGluR5 assessed as effect on glutamate-induced response; type: functional
Sequence of Metabotropic glutamate receptor 5 (Homo sapiens) (P41594 21-1212 limits assumed): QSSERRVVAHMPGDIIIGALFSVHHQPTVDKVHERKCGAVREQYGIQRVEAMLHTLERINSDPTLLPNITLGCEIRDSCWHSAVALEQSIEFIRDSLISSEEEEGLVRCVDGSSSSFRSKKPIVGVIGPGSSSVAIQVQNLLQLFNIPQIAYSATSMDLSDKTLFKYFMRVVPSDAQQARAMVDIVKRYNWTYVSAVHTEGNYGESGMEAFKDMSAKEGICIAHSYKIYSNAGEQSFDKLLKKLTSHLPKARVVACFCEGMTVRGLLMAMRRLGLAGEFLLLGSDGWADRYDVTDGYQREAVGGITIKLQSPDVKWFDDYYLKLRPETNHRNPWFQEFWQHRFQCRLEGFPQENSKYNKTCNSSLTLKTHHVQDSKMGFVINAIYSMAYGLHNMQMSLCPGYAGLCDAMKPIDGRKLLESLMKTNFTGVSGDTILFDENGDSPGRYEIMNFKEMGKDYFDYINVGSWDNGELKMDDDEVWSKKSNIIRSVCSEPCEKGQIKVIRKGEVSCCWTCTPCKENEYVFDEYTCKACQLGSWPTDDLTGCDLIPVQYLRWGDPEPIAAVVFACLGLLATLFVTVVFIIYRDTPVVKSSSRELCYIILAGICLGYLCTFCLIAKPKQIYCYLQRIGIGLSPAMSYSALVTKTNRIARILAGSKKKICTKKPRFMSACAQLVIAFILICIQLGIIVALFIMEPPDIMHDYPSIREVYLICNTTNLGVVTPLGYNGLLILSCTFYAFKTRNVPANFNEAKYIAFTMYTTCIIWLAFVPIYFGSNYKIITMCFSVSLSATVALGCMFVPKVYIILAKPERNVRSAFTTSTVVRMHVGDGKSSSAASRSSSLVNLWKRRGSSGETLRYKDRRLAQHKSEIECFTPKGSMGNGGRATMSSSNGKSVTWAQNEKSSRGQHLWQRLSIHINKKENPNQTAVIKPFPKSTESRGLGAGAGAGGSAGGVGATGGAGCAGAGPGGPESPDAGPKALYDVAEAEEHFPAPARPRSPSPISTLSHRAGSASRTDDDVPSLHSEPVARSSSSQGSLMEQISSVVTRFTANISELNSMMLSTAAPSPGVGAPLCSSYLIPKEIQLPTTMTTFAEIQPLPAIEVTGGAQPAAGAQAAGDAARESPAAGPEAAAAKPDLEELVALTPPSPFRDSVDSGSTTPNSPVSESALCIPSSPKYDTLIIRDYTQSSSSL

[9] = target: Metabotropic glutamate receptor 1 (Homo sapiens) (UniProt Q13255); assay: Antagonist activity at mGluR1 assessed as effect on glutamate-induced response; type: functional; design: scale not given: the % may be the effect or the level left
Sequence of Metabotropic glutamate receptor 1 (Homo sapiens) (Q13255 19-1194 limits assumed): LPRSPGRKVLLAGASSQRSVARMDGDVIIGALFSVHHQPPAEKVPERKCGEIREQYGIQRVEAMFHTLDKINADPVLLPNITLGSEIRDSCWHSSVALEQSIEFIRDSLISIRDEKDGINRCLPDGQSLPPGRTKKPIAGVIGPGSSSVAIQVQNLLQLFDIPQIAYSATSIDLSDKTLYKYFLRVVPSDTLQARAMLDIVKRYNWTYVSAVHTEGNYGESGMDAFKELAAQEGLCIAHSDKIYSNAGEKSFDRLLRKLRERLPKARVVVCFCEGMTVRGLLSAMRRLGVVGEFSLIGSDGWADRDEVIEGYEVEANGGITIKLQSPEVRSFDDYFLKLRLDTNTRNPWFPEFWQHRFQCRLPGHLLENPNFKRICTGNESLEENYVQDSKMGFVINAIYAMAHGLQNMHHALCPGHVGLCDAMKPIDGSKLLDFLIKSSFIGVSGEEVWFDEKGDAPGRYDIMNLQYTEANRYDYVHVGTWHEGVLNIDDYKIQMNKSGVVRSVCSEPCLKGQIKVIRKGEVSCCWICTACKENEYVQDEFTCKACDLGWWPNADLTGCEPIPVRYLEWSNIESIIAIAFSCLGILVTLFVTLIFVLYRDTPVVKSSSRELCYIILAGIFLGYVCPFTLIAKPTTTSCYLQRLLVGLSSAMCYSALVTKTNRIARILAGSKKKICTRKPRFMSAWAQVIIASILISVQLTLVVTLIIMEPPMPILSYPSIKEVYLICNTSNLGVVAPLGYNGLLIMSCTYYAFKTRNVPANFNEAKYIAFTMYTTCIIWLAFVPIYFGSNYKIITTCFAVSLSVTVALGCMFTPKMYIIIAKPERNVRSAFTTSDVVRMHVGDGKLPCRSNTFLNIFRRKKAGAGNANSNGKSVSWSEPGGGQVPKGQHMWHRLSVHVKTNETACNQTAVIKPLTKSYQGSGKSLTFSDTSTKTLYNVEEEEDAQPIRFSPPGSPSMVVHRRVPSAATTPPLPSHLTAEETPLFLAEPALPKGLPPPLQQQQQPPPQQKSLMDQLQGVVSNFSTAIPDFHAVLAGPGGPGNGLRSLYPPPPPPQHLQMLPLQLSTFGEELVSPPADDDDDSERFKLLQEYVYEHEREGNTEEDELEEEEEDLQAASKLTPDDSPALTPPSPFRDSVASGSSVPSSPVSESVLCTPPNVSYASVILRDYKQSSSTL

Row | SMILES | Activity [1] | EC50 [2] | further results
1 | Cc1nc2ccccc2nc1N/N=C/c1ccc(F)cc1 | 87% | > 5 µM | 
2 | COC(=O)c1ccc(N2C(=O)c3ccccc3NC2C(C)c2ccccc2)cc1 (stereo not given) | 69% | > 10 µM | 
3 | Cc1ccc(N2C(=O)c3ccccc3NC2C(C)c2ccccc2)cc1 (stereo not given) | 129% | 3 µM | 
4 | Cc1nc2ccccc2nc1N/N=C/c1ccccc1 | 129% | 4.4 µM | 
5 | Cc1nc2ccccc2nc1N/N=C/c1ccccc1O | 57% | 4.1 µM | 
6 | Cc1nc2ccccc2nc1N/N=C/c1ccc(O)cc1 | 144% | 1.7 µM | fold change (FC) [3]: 36; Activity [4]: inactive; Activity [5]: inactive; Activity [6]: inactive; Activity [7]: inactive; Activity [8]: inactive; Activity [9]: inactive
7 | Cc1nc2ccccc2nc1N/N=C/c1cccc(O)c1 | 136% | 2.4 µM | 
8 | COc1ccccc1/C=N/Nc1nc2ccccc2nc1C |  |  | Activity [2]: inactive
9 | O=C(Nc1ccccc1)[C@]12C[C@H]1/C(=N\O)c1ccccc1O2 |  |  | Activity [9]: 30%
10 | CC(c1ccccc1)C1Nc2ccccc2C(=O)N1c1cccc(F)c1 (stereo not given) | 87% | > 10 µM | 
